Measurements taken from patent US20140295012A1, “LATENT HUMAN IMMUNODEFICIENCY VIRUS REACTIVATION” (priority 2011, published 2014).

Experiments:
[1] = system: latently HIV-1 infected primary T cells; test: Reactivation of latent HIV-1 infection in primary T cells (GFP); format: cell-based; conditions: 24 hours
Protocol: Latently HIV-1 infected primary T cells were treated for 24 hours with aclacinomycin (ACM) or dactinomycin (ActD), or with the anti-CD3 monoclonal antibody (mAb) OKT3. Reactivation levels were determined as a percentage of GFP-positive cells 24 hours after stimulation. Viability of the cells correlates with the size of the symbol.
To determine if aclacinomycin or dactinomycin were capable of reactivating a latent HIV-1 infection in primary T cells, latently HIV-1 infected primary T cells were treated with aclacinomycin or dactinomycin or with the anti-CD3 monoclonal antibody OKT3 for 24 hours. Reactivation of the latent HIV-1 infection was observed by increasing levels of GFP fluorescence.

[2] = system: latently HIV-1 infected CA5 T cells; format: cell-based; conditions: CA5 cells pretreated with increasing concentrations
Protocol: Infection levels in the cell cultures were monitored by flow cytometric analysis of EGFP expression. Flow cytometric analysis was performed on a GUAVA EasyCyte (Millipore; Billerica, Mass.), or a LSRII (Becton & Dickinson; Franklin Lakes, N.J.).
Bacterial growth. Bacteria from various sources were isolated on TSA II agar plates containing 5% sheep blood. Bacterial isolates were then grown in RPMI 1640 medium supplemented with 10% FBS. After two days of incubation at 37° C. bacteria were pelleted and resuspended in RPMI medium to an optical density (OD600) of 8, aliquoted and frozen at −80° C. Unless otherwise indicated, Massilia timonae was grown in RPMI 1640 medium supplemented with 10% FBS. Typically, medium was inoculated with Massilia timonae from frozen stocks to an OD600 of 0.01. After 48 hours at 37° C., the culture was centrifuged at 3200 g to separate bacteria from the culture medium. Bacteria were resuspended in fresh medium to an OD600 of 8 and frozen to be used as references and stock cultures. The supernatant was then centrifuged at 10,000 g for 20 minutes and sterilized by passage through a 0.2 μm PVDF filter with low protein binding ability. HRF activity was determined by its ability to reactivate latent HIV-1 infection in CA5 cells. Only supernatants of which 6 μl reactivated infection in at least 60% of CA5 cells were used to study HRF properties.
Flow cytometry. Infection levels in the cell cultures were monitored by flow cytometric (FCM) analysis of GFP expression. FCM analysis was performed on a GUAVA EasyCyte (GUAVA Technologies, Inc.; Millipore; Billerica, Mass.) and a BD FACSCalibur or a LSRII (Becton & Dickinson; Franklin Lakes, N.J.). Cell sorting experiments were performed using a FACSAria™ Flow Cytometer (Becton&Dickinson). Data analysis was performed using either CellQuest (Becton&Dickinson) or GUAVA Express (GUAVA Technologies, Inc.).
To identify the optimal concentration of dactinomycin, CA5 T cells were pretreated with increasing concentrations of dactinomycin (0.0001 and 1 μg/ml), and then left untreated or stimulated with a sub-optimal concentration of HRF or TNF-α. Representative results for stimulation with HRF are depicted in FIG. 3. The chosen HRF concentration has only minimal HIV-1 reactivating effect by itself (15% reactivation over background). Twenty four hours after activator addition, levels of HIV-1 reactivation were determined as the percentage of GFP-positive cells using flow cytometric analysis, which allowed for the simultaneous determination of cell viability. […] Optimal pretreatment time was 18 hours. Maximum reactivation effects were seen 48 hours after stimulation.

[3] = biological target: T1, positive transcription elongation factor (P-TEFb), a complex of CDK9 and Cyclin T1 (UniProt P50750 1-372; O60563 1-726); test: glycerol gradient (10-45%) sedimentation of J89GFP cell lysates, Western blot of the fractions with anti-CDK9 and anti-HEXIM-1
T1 construct: also called CDK9/CycT1
T1 sequence (P50750 whole entry, chain 1 of 2): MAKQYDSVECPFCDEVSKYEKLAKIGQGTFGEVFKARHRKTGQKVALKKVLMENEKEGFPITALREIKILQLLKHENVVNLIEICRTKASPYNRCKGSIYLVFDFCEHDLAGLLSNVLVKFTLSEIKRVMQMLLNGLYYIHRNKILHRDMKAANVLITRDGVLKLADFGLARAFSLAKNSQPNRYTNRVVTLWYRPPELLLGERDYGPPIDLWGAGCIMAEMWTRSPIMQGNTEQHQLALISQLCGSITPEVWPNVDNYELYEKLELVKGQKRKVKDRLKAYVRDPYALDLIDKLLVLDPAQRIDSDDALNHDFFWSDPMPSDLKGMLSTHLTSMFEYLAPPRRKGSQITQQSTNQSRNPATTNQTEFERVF
T1 sequence (O60563 whole entry, chain 2 of 2): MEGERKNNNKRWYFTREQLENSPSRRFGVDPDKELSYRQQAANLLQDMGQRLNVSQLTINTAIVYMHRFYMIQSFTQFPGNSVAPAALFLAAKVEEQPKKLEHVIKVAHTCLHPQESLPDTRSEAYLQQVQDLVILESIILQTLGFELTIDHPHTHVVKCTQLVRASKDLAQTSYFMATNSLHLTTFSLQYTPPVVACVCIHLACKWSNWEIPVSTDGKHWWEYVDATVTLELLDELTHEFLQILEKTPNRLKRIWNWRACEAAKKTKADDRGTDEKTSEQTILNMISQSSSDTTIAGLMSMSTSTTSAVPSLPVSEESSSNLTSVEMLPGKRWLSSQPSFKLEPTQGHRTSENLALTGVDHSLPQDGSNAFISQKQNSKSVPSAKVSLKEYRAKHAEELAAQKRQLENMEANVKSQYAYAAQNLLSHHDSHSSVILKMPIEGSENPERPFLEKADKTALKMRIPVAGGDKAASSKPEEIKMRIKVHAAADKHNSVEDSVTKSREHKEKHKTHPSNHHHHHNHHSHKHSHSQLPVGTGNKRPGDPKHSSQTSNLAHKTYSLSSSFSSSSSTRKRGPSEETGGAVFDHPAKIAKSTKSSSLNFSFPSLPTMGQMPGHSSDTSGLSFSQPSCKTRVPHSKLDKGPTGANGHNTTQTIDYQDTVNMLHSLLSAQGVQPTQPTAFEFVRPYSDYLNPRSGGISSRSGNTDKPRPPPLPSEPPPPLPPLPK
Protocol: Each gradient fraction was separated on a 10% SDS-PAGE gel and transferred by Western blot. […] Band densities were determined using ImageJ and are presented as relative band density. […] Band densities were determined using ImageJ and are presented as relative band density.
Fractions were resolved on 10% SDS-PAGE and transferred to polyvinylidene fluoride membrane.
Each gradient fraction was separated on a SDS-PAGE gel and subjected to Western blotting.

| Molecule | reactivation of latent HIV-1 infection [1] | priming effect on HIV-1 reactivation by sub-optimal dose of HRF [2] | binding result [3] |
| --- | --- | --- | --- |
| CC[C@@]1(O)C[C@H](O[C@H]2C[C@H](N(C)C)[C@H](O[C@H]3C[C@H](O)[C@H](O[C@H]4CCC(=O)[C@H](C)O4)[C@H](C)O3)[C@H](C)O2)c2c(cc3c(c2O)C(=O)c2c(O)cccc2C3=O)[C@H]1C(=O)OC [aclacinomycin] | capable of reactivating latent HIV-1 infections | strong priming effect |  |
| HEXIM-1 (other, UniProt O94992 1-359, looked up) MAEPFLSEYQHQPQTSNCTGAAAVQEELNPERPPGAEERVPEEDSRWQSRAFPQLGGRPGPEGEGSLESQPPPLQTQACPESSCLREGEKGQNGDDSSAGGDFPPPAEVEPTPEAELLAQPCHDSEASKLGAPAAGGEEEWGQQQRQLGKKKHRRRPSKKKRHWKPYYKLTWEEKKKFDEKQSLRASRIRAEMFAKGQPVAPYNTTQFLMDDHDQEEPDLKTGLYSKRAAAKSDDTSDDDFMEEGGEEDGGSDGMGGDGSEFLQRDFSETYERYHTESLQNMSKQELIKEYLELEKCLSRMEDENNRLRLESKRLGGDDARVRELELELDRLRAENLQLLTENELHRQQERAPLSKFGD |  |  | binds |
